The values that follow come from patent US12516092B2, “Peptide ligands of the GDNF family receptor A-like (GFRAL) receptor” (THE TRUSTEES OF THE UNIVERSITY OF PENNSYLVANIA, priority 2019, dated 2026).

Data set [1] can be described thus: in vitro PK study in rat microsomes. Type of data set: in vitro ADME. The procedure:
FIG. 8 is a graph illustrating the results from in vitro PK study of GFRAL receptor antagonist in rat microsomes. […] Reaction velocity (V) was calculated to be 511 uL/1 mg. Intrinsic clearance (Cl-int) was determined to be 339 uL/min/mg protein.

The target in data set [2] is T1, human GFRAL receptor (Homo sapiens, UniProt Q6UXV0).
T1 sequence (Q6UXV0 19-394): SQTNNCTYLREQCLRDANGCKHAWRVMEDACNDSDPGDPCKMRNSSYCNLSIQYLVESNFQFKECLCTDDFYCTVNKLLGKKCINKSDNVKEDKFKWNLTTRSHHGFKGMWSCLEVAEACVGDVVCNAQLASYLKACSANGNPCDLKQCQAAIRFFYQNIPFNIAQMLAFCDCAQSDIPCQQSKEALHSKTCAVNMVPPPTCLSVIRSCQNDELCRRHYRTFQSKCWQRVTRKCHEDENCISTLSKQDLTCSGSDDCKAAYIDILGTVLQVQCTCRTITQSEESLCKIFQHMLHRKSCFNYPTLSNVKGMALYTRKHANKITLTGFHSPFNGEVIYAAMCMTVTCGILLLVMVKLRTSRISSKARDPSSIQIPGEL
In words: Cy5-conjugate binding to human GFRAL receptor in vitro, tracked with anti-Cy5 antibody. Conditions: Cy5-conjugate exposed to human GFRAL receptor in vitro. An excerpt:
A Cy5-conjugate of GFRAL receptor antagonist was synthesized and exposed to the human GFRAL receptor in vitro and tracked for binding using an anti-Cy5 antibody.

The test system of data set [3] is male rats. Kind of data set: Ejaculation studies in rats. Type of data set: in vivo, rat. Conditions: video recorded for 3 h. Here is the method:
Rats were video recorded for 3 h and the number of spontaneous ejaculations were analyzed by an observer blinded to treatment groups. Without wishing to be bound by theory, GFANT01 may be an agonist of the GFRAL receptor.

Data set [4] relates to rats. In words: kaolin intake study. Type of data set: in vivo, rat. Conditions: compared to vehicle alone and MIC-1. Here is the method: (§1) FIG. 5A is a graph of a food intake study performed to evaluate the efficacy of unconjugated GFANT05 peptide (TK*[…]; SEQ ID NO: 5, wherein K* is K azido) to reduce nausea.
(§2) Five potential ligands (GFANT01-GFANT05, SEQ. ID NOs: 1-5, wherein the K* in each peptide is Lysine(N3)) were synthesized. The effects of each of the novel ligands were tested for their ability to alter nausea in rats over the course of 24 hours. […] Animals were given either MIC-1 (30 pmol), the endogenous ligand of GFRAL that suppresses appetites, GFANT05 (300 pmol), or a combination of both and their food intake was monitored for up to 24 hrs (FIG. 5A). […] In addition, kaolin intake, a reliable measure of nausea in rats, was reduced in animals receiving GFANT05 compared to vehicle alone and that of a known nausea-inducing compound (MIC-1) (FIG. 5B). […] Analysis of emetic episodes were measured by an observer blinded to treatment groups.

The subject of data set [5] is rats. Kind of data set: Nausea/malaise (illness-like behaviors) studies in rats. Particulars: over the course of 24 hours. Type of data set: in vivo, rat. Here is the method: as §2
Data set [6] concerns rats. In words: food intake study. Type of data set: in vivo, rat. The procedure: as §1, §2
For data set [7], the system named is GFRAL receptor. In words: co-localization with the GFRAL receptor in the brainstem (image). An excerpt: This technology provides a new route to treat cachexia and chemotherapy induced nausea/vomiting by uniquely blocking the GDF15-GFRAL signaling in the brainstem.
For data set [8], the target named is T2, recombinant human GFRα-like His-tag receptor (Homo sapiens, UniProt Q6UXV0).
T2 construct: purchased R&D 9647-GR-050
T2 sequence (Q6UXV0 19-394): T1 sequence (Q6UXV0 19-394)
Kind of data set: ELISA binding assay of GDF15 to GFRAL receptor. Conditions: GDF15 run at 100 ng/mL to 0.005 ng/mL; receptor 0.1 μg/mL on nickel coated plate. The procedure: To validate binding of the synthesized peptides to the GFRAL receptor, an ELISA assay was developed to determine the binding affinity of the peptides for their receptor. The primary antibody (Abcam ab206414) was diluted to 1 μg/mL. The secondary antibody was diluted by placing 5 μL into 10 mL assay buffer. GDF15 was run at concentrations of 100 ng/mL to 0.005 ng/mL. The recombinant human GFRα-like His-tag receptor (R&D 9647-GR-050) was added to the Pierce™ nickel coated plate (ThermoFisher Scientific 15442) at 0.1 μg/mL in a total volume of 100 μL.

Non-standard residues stand in square brackets, D forms with d. Residues, ends and D or L forms follow the SMILES beside them. No end group written: not given here. Lys(N3) = [N-]=[N+]=NCCCC[C@H](N)C(=O)O

As a reminder, the half-life is the time needed for the level to fall by half in the phase considered. Low values mean fast loss, high ones slow loss. A word on the KD: it is the free concentration of one partner at which half of the binding sites on the other are occupied at equilibrium, for simple one-to-one binding.

On to `CC[C@H](C)[C@H](NC(=O)[C@H](CC(C)C)NC(=O)[C@H](CCC(=O)O)NC(=O)[C@H](CCC(=O)O)NC(=O)[C@H](CCCCN=[N+]=[N-])NC(=O)[C@@H](N)[C@@H](C)O)C(=O)N[C@@H](Cc1c[nH]cn1)C(=O)N[C@@H](C)C(=O)N[C@@H](Cc1c[nH]cn1)C(=O)N[C@@H](C)C(=O)N[C@@H](CC(=O)O)C(=O)N1CCC[C@H]1C(=O)N[C@@H](CCSC)C(=O)N[C@H](C(=O)N[C@@H](CC(C)C)C(=O)N[C@H](C(=O)N[C@@H](CCC(N)=O)C(=O)N[C@@H](CCCCN)C(=O)N[C@H](C(=O)N[C@@H](CC(=O)O)C(=O)N[C@H](C(=O)NCC(=O)N[C@H](C(=O)N[C@@H](CO)C(=O)N[C@@H](CC(C)C)C(=O)N[C@@H](CCC(N)=O)C(=O)N[C@H](C(=O)N[C@@H](Cc1ccc(O)cc1)C(=O)N[C@@H](CC(=O)O)C(=O)O)[C@@H](C)O)C(C)C)[C@@H](C)O)[C@@H](C)O)[C@@H](C)CC)C(C)C` [GFRAL receptor antagonist] (H-T[Lys(N3)]EELIHAHADPMVLIQKTDTGVSLQTYD-OH; N-terminus and C-terminus assumed), for which, in data set [1], the “Reaction velocity (V)” value amounted to 511 uL/1 mg and the half-life stood at 1.74 h. Further, the microsomal CLint in data set [1] (read-out: Intrinsic clearance (Cl-int)) was determined as 339 µL/min/mg.

Take “Cy5-conjugate of GFRAL receptor antagonist: Cy5-conjugate of GFRAL receptor antagonist, synthesized for tracking binding with an anti-Cy5 antibody (T[Lys(N3)]EELIHAHADPMVLIQKTDTGVSLQTYD; also: Cy5 conjugate, site not given here)”: the “binding to the GFRAL receptor” value in data set [2] is recorded as “confirming GFRAL receptor antagonist binding to the GFRAL receptor”.

For “GFANT01: engineered peptide EDDVSFQK*LDDNVRYHTLRK; may be an agonist of the GFRAL receptor (EDDVSFQ[Lys(N3)]LDDNVRYHTLRK; not fully specified; printed as EDDVSFQK*LDDNVRYHTLRK)”, in data set [3], the spontaneous ejaculation entry is given as “result in spontaneous ejaculation”.

For “GFANT05: engineered peptide TK*EELIHAHADPMVLIQKTDTGVSLQTYD; GFRAL receptor antagonist (T[Lys(N3)]EELIHAHADPMVLIQKTDTGVSLQTYD)”, the kaolin intake entry in data set [4] is given as “reduced”. Also, the “effect on nausea/illness-like behaviors” value in data set [5] is “significant effect”. Further, the overall food consumption entry in data set [6] (GFANT05 (300 pmol) added to MIC-1 (30 pmol), compared with MIC-1) is given as “did not increase overall food consumption over MIC-1”. The food intake entry in data set [6] (GFANT05 (300 pmol) alone, 24 hrs post-administration, vs untreated control) was “ate the same amount of food as untreated control animals”. For the same compound, the “co-localization with the GFRAL receptor” value in data set [7] is “co-localizing with the GFRAL receptor in the brainstem”.

For the compound “growth and differentiation factor 15 [GDF15]”, the dissociation constant (KD) in data set [8] is 1.03 ng/mL. In data set [3], the spontaneous ejaculation entry is listed as “the same effect”.
